Counter-ions that a name gives are not always drawn. Like-named read-outs stand apart in the source and are kept apart here. Where a SMILES comes first, the peptide text is derived from it. Bridges are numbered along the chain shown (N, C = ends). [ ]: non-standard residue; d: D form. The star is where a group is joined. ξ: configuration not given here. ξNMePhe(4-NMe2) = CNC(Cc1ccc(N(C)C)cc1)C(=O)O; Picolinoyl(3-OH) = O=C(c1ncccc1O)*; ξPip(4-oxo) = O=C1CCNC(C(=O)O)C1; Phg = N[CH](C(=O)O)c1ccccc1; Abu = CC[CH](N)C(=O)O; GABA = NCCCC(=O)O
What was measured:
[1] = tested on: P. falciparum 3D7 parasites; assay: P. falciparum growth inhibition assay, 2-cycle (120 h treatment), delayed-death screen and dose-response; format: cell-based, Plasmodium falciparum; conditions: for activity at 2 µg/mL: Plasmodium falciparum
[2] = tested on: P. falciparum 3D7 parasites; assay: P. falciparum growth inhibition assay, 1-cycle (72 h treatment), SYBR DNA staining (library screen at 2 μg/mL and dose-response); format: cell-based, Plasmodium falciparum; conditions: for activity at 2 µg/mL: Plasmodium falciparum
[3] = tested on: T. gondii RH strain (RH-Tub-eYFP) tachyzoites; assay: microbe, parasite or virus in culture; format: cell-based, Toxoplasma gondii
[4] = P. falciparum, 120 h, screen at 2 μg/mL, replicate 1
[5] = P. falciparum, 120 h, screen at 2 μg/mL, replicate 2
[6] = P. falciparum, 72 h, screen at 2 μg/mL, replicate 1
[7] = P. falciparum, 72 h, screen at 2 μg/mL, replicate 2
[8] = T. gondii, 72 h, screen at 2 μg/mL, replicate 1
[9] = T. gondii, 72 h, screen at 2 μg/mL, replicate 2
[10] = 3D7, 120 h, P. falciparum, 120 h, screen at 2 μg/mL, replicate 1, read-out: Pf_120h_%Growth_Rep1
[11] = 3D7, 120 h, P. falciparum, 120 h, screen at 2 μg/mL, replicate 2, read-out: Pf_120h_%Growth_Rep2
[12] = 3D7, 72 h, P. falciparum, 72 h, screen at 2 μg/mL, replicate 1, read-out: Pf_72h_%Growth_Rep1
[13] = 3D7, 72 h, P. falciparum, 72 h, screen at 2 μg/mL, replicate 2, read-out: Pf_72h_%Growth_Rep2
[14] = Toxoplasma gondii, 72 h, T. gondii, 72 h, screen at 2 μg/mL, replicate 1; read-out: Tg_72h_%Growth_Rep1
[15] = Toxoplasma gondii, 72 h, T. gondii, 72 h, screen at 2 μg/mL, replicate 2; read-out: Tg_72h_%Growth_Rep2
[16] = 3D7, P. falciparum, 120 h, screen at 2 μg/mL, replicate 1, read-out: Pf_120h_%Growth_Rep1
[17] = 3D7, P. falciparum, 120 h, screen at 2 μg/mL, replicate 2, read-out: Pf_120h_%Growth_Rep2
[18] = 3D7, P. falciparum, 72 h, screen at 2 μg/mL, replicate 1, read-out: Pf_72h_%Growth_Rep1
[19] = 3D7, P. falciparum, 72 h, screen at 2 μg/mL, replicate 2, read-out: Pf_72h_%Growth_Rep2
[20] = Toxoplasma gondii, 72 h, read-out: Tg_72h_%Growth_Rep1
[21] = Toxoplasma gondii, 72 h, read-out: Tg_72h_%Growth_Rep2
[22] = Toxoplasma gondii; T. gondii, 72 h, screen at 2 μg/mL, replicate 1; read-out: Tg_72h_%Growth_Rep1
[23] = Toxoplasma gondii; T. gondii, 72 h, screen at 2 μg/mL, replicate 2; read-out: Tg_72h_%Growth_Rep2

Structure (SMILES) | Pf_120h_%Growth_Rep1 [1, 4] | Pf_120h_%Growth_Rep2 [1, 5] | Pf_72h_%Growth_Rep1 [2, 6] | Pf_72h_%Growth_Rep2 [2, 7] | Tg_72h_%Growth_Rep1 [3, 8] | Tg_72h_%Growth_Rep2 [3, 9] | percent parasite growth at 2 µg/mL [3, 14] | percent parasite growth at 2 µg/mL [3, 15] | activity at 2 µg/mL [1, 16] | activity at 2 µg/mL [1, 17] | activity at 2 µg/mL [2, 18] | activity at 2 µg/mL [2, 19] | further results
CC(C)C[C@@H]1NC(=O)[C@@H](C(C)C)NC(=O)[C@@H](C)NC(=O)CCCNC(=O)[C@@H](Cc2c[nH]c3ccccc23)NC(=O)[C@@H](C)NC(=O)[C@@H](C(C)C)NC1=O [Unguisin B] (cyclo([GABA][dA][dV]L[dV][dA][dW])) | 112.33% | 102.07% | 89.12% | 119.76% | 121.22% | 81.61% | – | – | – | – | – | – | –
O=C(O)/C=C/c1c[nH]cn1 [Urocanic acid] | – | – | – | – | – | – | 81% | 70.9% | – | – | – | – | activity at 2 µg/mL [1, 10]: 81.3%; activity at 2 µg/mL [1, 11]: 51.9%; activity at 2 µg/mL [2, 12]: 79.2%; activity at 2 µg/mL [2, 13]: 89.3%
C[C@H]1[C@H](C)CC[C@]2(C(=O)O)CC[C@]3(C)C(=CC[C@@H]4[C@@]5(C)CC[C@H](O)C(C)(C)[C@@H]5CC[C@]43C)[C@H]12 [Ursolic acid] | – | – | – | – | – | – | – | – | 155% | 79.7% | 77.7% | 84% | percent parasite growth at 2 µg/mL [3, 20]: 96%; percent parasite growth at 2 µg/mL [3, 21]: 92.8%
CC(=O)c1c(O)c(C)c(O)c2c1OC1=CC(=O)C(C(C)=O)C(=O)C12C (stereo not drawn) [Usnic acid] | – | – | – | – | – | – | 115% | 87.6% | 101% | 102% | 82.8% | 126% | –
OCC1=C[C@@H](N[C@H]2C[C@H](CO)[C@@H](O[C@H]3O[C@@H](CO)[C@H](O)[C@@H](O)[C@@H]3O)[C@H](O)[C@H]2O)[C@H](O)[C@@H](O)[C@@H]1O [Validamycin A] | 167.49% | 74.14% | 75.67% | 70.52% | 87.00% | 98.14% | – | – | – | – | – | – | –
CC(C)[C@@H]1NC(=O)[C@H](C)OC(=O)[C@@H](C(C)C)NC(=O)[C@@H](C(C)C)OC(=O)[C@H](C(C)C)NC(=O)[C@H](C)OC(=O)[C@@H](C(C)C)NC(=O)[C@@H](C(C)C)OC(=O)[C@H](C(C)C)NC(=O)[C@H](C)OC(=O)[C@@H](C(C)C)NC(=O)[C@@H](C(C)C)OC1=O [Valinomycin] | – | – | – | – | – | – | – | – | 90.6% | 101% | 81% | 123% | percent parasite growth at 2 µg/mL [3, 22]: 122%; percent parasite growth at 2 µg/mL [3, 23]: 85.6%
CN[C@H](CC(C)C)C(=O)N[C@H]1C(=O)N[C@@H](CC(N)=O)C(=O)N[C@H]2C(=O)N[C@H]3C(=O)N[C@H](C(=O)N[C@H](C(=O)O)c4cc(O)cc(O)c4-c4cc3ccc4O)[C@H](O)c3ccc(c(Cl)c3)Oc3cc2cc(c3O[C@@H]2O[C@H](CO)[C@@H](O)[C@H](O)[C@H]2O[C@H]2C[C@](C)(N)[C@H](O)[C@H](C)O2)Oc2ccc(cc2Cl)[C@H]1O [Vancomycin hydrochloride] | – | – | – | – | – | – | – | – | – | – | – | – | activity at 2 µg/mL ([1]; 3D7, 120 h, read-out: Pf_120h_%Growth_Rep1): 110%; activity at 2 µg/mL ([1]; 3D7, 120 h, read-out: Pf_120h_%Growth_Rep2): 98.5%; activity at 2 µg/mL ([2]; 3D7, 72 h, read-out: Pf_72h_%Growth_Rep1): 88%; activity at 2 µg/mL ([2]; 3D7, 72 h, read-out: Pf_72h_%Growth_Rep2): 120%; percent parasite growth at 2 µg/mL [3, 20]: 108%; percent parasite growth at 2 µg/mL [3, 21]: 80.9%
CCC(=O)[C@@H](C)[C@@H](O)[C@H](C)C[C@@H](C)[C@H]1OC(=O)C[C@@]2(O)CC=C(C)[C@H](O2)/C(C)=C/CCC[C@@H](O[C@H]2C[C@@H](OC(N)=O)[C@H](O)[C@@H](C)O2)/C=C/[C@H](C)C[C@H]1C [Venturicidin A] | 19.97% | -12.87% | 8.64% | 1.38% | -1.24% | 0.71% | – | – | – | – | – | – | –
CCC(=O)[C@@H](C)[C@@H](O)[C@H](C)C[C@@H](C)[C@H]1OC(=O)C[C@@]2(O)CC=C(C)[C@H](O2)/C(C)=C/CCC[C@@H](O[C@H]2C[C@@H](O)[C@H](O)[C@@H](C)O2)/C=C/[C@H](C)C[C@H]1C [Venturicidin B] | 23.65% | 5.91% | 25.34% | 5.57% | 0.31% | 1.90% | – | – | – | – | – | – | –
C=CC(C)(C)[C@@]12C[C@H]3C(=O)N[C@H](CC(C)C)C(=O)N3[C@H]1N(C(C)=O)c1ccccc12 [Verrucofortine] | – | – | – | – | – | – | 90.9% | 99.7% | 152% | 81.9% | 70% | 83.7% | –
COc1ccc2c3c4n(c2c1)[C@H](C=C(C)C)OOC(C)(C)C[C@@H]4N1C(=O)[C@@H]2CCCN2C(=O)[C@]1(O)[C@H]3O [Verruculogen] | – | – | – | – | – | – | – | – | 144% | 80.6% | 58.1% | 88.5% | percent parasite growth at 2 µg/mL [3, 22]: 92.4%; percent parasite growth at 2 µg/mL [3, 23]: 102%
O=C1NC(c2c[nH]c3ccc(O)cc23)=C/C1=C1\C(=O)Nc2ccccc21 [Violacein] | – | – | – | – | – | – | 85.9% | 106% | 170% | 91.7% | 83.3% | 90.2% | –
CCC1NC(=O)C(NC(=O)c2ncccc2O)C(C)OC(=O)C(c2ccccc2)NC(=O)C2CC(=O)CCN2C(=O)C(Cc2ccc(N(C)C)cc2)N(C)C(=O)C2CCCN2C1=O (stereo not drawn) [Virginiamycin B] ({Picolinoyl(3-OH)}-T[Abu]P[ξNMePhe(4-NMe2)][ξPip(4-oxo)][Phg]; ester 1-C; configuration not given here) | 152.31% | 75.63% | 73.90% | 82.34% | 93.06% | 114.46% | – | – | – | – | – | – | –
CC[C@H]1NC(=O)[C@@H](NC(=O)c2ncccc2O)[C@@H](C)OC(=O)[C@H](c2ccccc2)NC(=O)[C@@H]2CC(=O)CCN2C(=O)[C@H](Cc2ccccc2)N(C)C(=O)[C@@H]2CCCN2C1=O [Virginiamycin S1] | 110.70% | 75.61% | 88.54% | 126.74% | 137.70% | 85.91% | – | – | – | – | – | – | –
O=c1[nH]c2ccccc2c(-c2ccccc2)c1O [Viridicatin] | – | – | – | – | – | – | 145% | 80.5% | 106% | 104% | 91.8% | 125% | –
O=c1[nH]c2ccccc2c(-c2cccc(O)c2)c1O [Viridicatol] | 110.38% | 105.05% | 94.32% | 122.09% | 112.17% | 75.26% | – | – | – | – | – | – | –
CC=C1CN(C)C2Cc3c([nH]c4ccccc34)C(c3cc4[nH]c5c(c4cc3OC)CCN3CC4CC(CC)C3C5(C(=O)OC)C4)CC1C2C(=O)OC (stereo not drawn) [Voacamine] | – | – | – | – | – | – | 97% | 101% | – | – | – | – | activity at 2 µg/mL [1, 10]: 106%; activity at 2 µg/mL [1, 11]: 45.2%; activity at 2 µg/mL [2, 12]: 56.2%; activity at 2 µg/mL [2, 13]: 62%

From PMC12396409, “Screening and hit evaluation of a microbial metabolite library against the pathogenic Plasmodium falciparum and Toxoplasma gondii parasites” (International Journal for Parasitology: Drugs and Drug …, 2025)
